Measured values reported in patent publication US10758534B2 (Vertex Pharmaceuticals Incorporated, priority 2014, dated 2020).

Target: T1, F508del (Homo sapiens, UniProt P13569, DEL508-508)
T1 construct: expressed in transfected cells
Experiment: Protocol 1: membrane potential optical assay (FLIPR III, voltage sensing dye), identification of potentiator compounds
Assay type: cell-based
Conditions: Table 3, compounds of Table 1
Procedure, shortened: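 Mouse NIH 3T3 fibroblasts stably expressing F508del, temperature-corrected at 27 °C for 24 h, pretreated with compound, then loaded with voltage-sensing redistribution dye. Forskolin was added in a single step with a chloride gradient (chloride-free gluconate bath; Bath Solution #1 HEPES pH 7.4). Membrane-potential fluorescence read on FLIPR III.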

T1 sequence (P13569 with tags, fused parts or gaps DEL508-508): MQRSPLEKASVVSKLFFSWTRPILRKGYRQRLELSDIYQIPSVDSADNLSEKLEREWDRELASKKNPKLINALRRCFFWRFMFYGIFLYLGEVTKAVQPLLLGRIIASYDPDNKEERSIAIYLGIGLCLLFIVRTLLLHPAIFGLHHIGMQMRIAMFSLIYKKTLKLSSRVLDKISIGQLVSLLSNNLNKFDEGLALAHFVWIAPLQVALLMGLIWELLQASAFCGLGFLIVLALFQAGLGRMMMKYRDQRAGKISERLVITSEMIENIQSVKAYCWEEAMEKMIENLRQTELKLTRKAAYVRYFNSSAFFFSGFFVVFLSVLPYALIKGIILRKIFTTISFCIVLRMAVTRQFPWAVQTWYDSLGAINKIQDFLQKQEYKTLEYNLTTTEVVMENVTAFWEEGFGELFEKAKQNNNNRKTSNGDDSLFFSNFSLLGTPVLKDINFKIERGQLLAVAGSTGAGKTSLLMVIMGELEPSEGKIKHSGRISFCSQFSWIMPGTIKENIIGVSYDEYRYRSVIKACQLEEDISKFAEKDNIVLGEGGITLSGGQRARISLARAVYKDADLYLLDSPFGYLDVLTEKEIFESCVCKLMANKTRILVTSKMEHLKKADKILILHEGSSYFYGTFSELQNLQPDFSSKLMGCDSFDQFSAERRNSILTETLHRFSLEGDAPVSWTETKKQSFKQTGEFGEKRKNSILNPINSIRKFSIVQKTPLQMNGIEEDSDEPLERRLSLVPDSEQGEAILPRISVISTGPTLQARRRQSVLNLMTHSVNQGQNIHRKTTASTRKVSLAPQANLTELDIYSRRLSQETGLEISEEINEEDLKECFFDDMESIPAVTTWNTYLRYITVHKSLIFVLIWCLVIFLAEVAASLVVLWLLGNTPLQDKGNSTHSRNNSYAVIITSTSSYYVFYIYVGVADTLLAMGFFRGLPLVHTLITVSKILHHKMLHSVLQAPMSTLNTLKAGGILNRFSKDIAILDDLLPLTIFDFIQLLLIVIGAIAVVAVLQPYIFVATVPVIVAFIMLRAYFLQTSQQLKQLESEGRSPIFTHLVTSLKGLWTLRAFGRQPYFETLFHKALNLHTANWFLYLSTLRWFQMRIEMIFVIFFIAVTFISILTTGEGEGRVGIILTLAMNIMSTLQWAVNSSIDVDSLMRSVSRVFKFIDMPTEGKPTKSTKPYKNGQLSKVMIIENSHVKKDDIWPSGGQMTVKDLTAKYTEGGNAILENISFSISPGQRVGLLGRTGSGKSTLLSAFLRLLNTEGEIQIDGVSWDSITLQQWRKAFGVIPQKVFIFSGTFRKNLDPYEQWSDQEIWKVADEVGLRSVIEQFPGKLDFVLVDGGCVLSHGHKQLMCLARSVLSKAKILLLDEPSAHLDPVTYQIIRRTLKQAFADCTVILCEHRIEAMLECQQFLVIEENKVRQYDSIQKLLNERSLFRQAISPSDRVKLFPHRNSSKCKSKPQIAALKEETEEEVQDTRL

Row | SMILES | EC30
1 | CCN(CC)c1cc(-c2ccc(C(=O)NS(=O)(=O)c3cccc(N)n3)c(N3C[C@@H](C)CC3(C)C)n2)cc(C)n1 [Compound 1739, N-[(6-amino-2-pyridyl)sulfonyl]-6-[2-(diethylamino)-6-methyl-4-pyridyl]-2-[(4S)-2,2,4-trimethylpyrrolidin-1-yl]pyridine-3-carboxamide] | +++ (“+++” means <3 uM)
2 | Cc1cc(-c2ccc(C(=O)NS(=O)(=O)c3cccc(N)n3)c(N3C[C@@H](C)CC3(C)C)n2)cnc1OCC(C)C [Compound 1741, N-[(6-amino-2-pyridyl)sulfonyl]-6-(6-isobutoxy-5-methyl-3-pyridyl)-2-[(4S)-2,2,4-trimethylpyrrolidin-1-yl]pyridine-3-carboxamide] | +++ (“+++” means <3 uM)
3 | CCOCCOc1ccn(-c2ccc(C(=O)NS(=O)(=O)c3cccnc3N)c(N3C[C@@H](C)CC3(C)C)n2)n1 [Compound 1742, N-[(2-amino-3-pyridyl)sulfonyl]-6-[3-(2-ethoxyethoxy)pyrazol-1-yl]-2-[(4S)-2,2,4-trimethylpyrrolidin-1-yl]pyridine-3-carboxamide] | +++ (“+++” means <3 uM)
4 | Cc1cn(-c2ccc(C(=O)NS(=O)(=O)c3ccc[nH]c3=O)c(N3C[C@@H](C)CC3(C)C)n2)nc1OCC(C)C [Compound 1743, 6-(3-isobutoxy-4-methyl-pyrazol-1-yl)-N-[(2-oxo-1H-pyridin-3-yl)sulfonyl]-2-[(4S)-2,2,4-trimethylpyrrolidin-1-yl]pyridine-3-carboxamide] | +++ (“+++” means <3 uM)
5 | COc1cc(C(C)=O)ccc1Oc1cccc(S(=O)(=O)NC(=O)c2cccnc2N2CC(C)CC2(C)C)n1 (stereo not shown) [Compound 1744, N—[[6-(4-acetyl-2-methoxy-phenoxy)-2-pyridyl]sulfonyl]-2-(2,2,4-trimethylpyrrolidin-1-yl)pyridine-3-carboxamide] | ++ (“++” means between 3 uM and 10 uM)
6 | CCOc1cc(C)cc(-c2ccc(C(=O)NS(=O)(=O)c3ccc[nH]c3=O)c(N3C[C@@H](C)CC3(C)C)n2)n1 [Compound 1745, 6-(6-ethoxy-4-methyl-2-pyridyl)-N-[(2-oxo-1H-pyridin-3-yl)sulfonyl]-2-[(4S)-2,2,4-trimethylpyrrolidin-1-yl]pyridine-3-carboxamide] | +++ (“+++” means <3 uM)
7 | CC(C)COc1cc(F)cc(-c2ccc(C(=O)NS(=O)(=O)c3cccc(N)n3)c(N3CC4(CC4)CC3(C)C)n2)c1 [Compound 1746, N-[(6-amino-2-pyridyl)sulfonyl]-2-(5,5-dimethyl-6-azaspiro[2.4]heptan-6-yl)-6-(3-fluoro-5-isobutoxy-phenyl)pyridine-3-carboxamide] | +++ (“+++” means <3 uM)
8 | COc1ccc(-c2ccc(C(=O)NS(=O)(=O)c3cccnc3N)c(N3C[C@@H](C)CC3(C)C)n2)cc1C [Compound 1747, N-[(2-amino-3-pyridyl)sulfonyl]-6-(4-methoxy-3-methyl-phenyl)-2-[(4S)-2,2,4-trimethylpyrrolidin-1-yl]pyridine-3-carboxamide] | +++ (“+++” means <3 uM)
9 | COc1cc(-c2ccc(C(=O)NS(=O)(=O)c3cccc(N)n3)c(N3C[C@@H](C)CC3(C)C)n2)cc(C)n1 [Compound 1748, N-[(6-amino-2-pyridyl)sulfonyl]-6-(2-methoxy-6-methyl-4-pyridyl)-2-[(4S)-2,2,4-trimethylpyrrolidin-1-yl]pyridine-3-carboxamide] | +++ (“+++” means <3 uM)
10 | CC1CC(C)CN(c2cccc(S(=O)(=O)NC(=O)c3cccnc3N3CC(C)CC3(C)C)n2)C1 (stereo not shown) [Compound 1749, N—[[6-(3,5-dimethyl-1-piperidyl)-2-pyridyl]sulfonyl]-2-(2,2,4-trimethylpyrrolidin-1-yl)pyridine-3-carboxamide] | +++ (“+++” means <3 uM)
11 | CC(C)COc1cc(F)cc(-c2ccc(C(=O)NS(=O)(=O)c3ccc(O)cc3)c(N3C[C@@H](C)CC3(C)C)n2)c1 [Compound 1750, 6-(3-fluoro-5-isobutoxy-phenyl)-N-(4-hydroxyphenyl)sulfonyl-2-[(4S)-2,2,4-trimethylpyrrolidin-1-yl]pyridine-3-carboxamide] | +++ (“+++” means <3 uM)
12 | CC(C)COc1cc(F)cc(-c2ccc(C(=O)NS(=O)(=O)c3cccc(N)n3)c(N3CC(C)CC34CC4)n2)c1 (stereo not shown) [Compound 1754, N-[(6-amino-2-pyridyl)sulfonyl]-6-(3-fluoro-5-isobutoxy-phenyl)-2-(5-methyl-7-azaspiro[2.4]heptan-7-yl)pyridine-3-carboxamide] | +++ (“+++” means <3 uM)
13 | Cc1cn(-c2ccc(C(=O)NS(=O)(=O)c3cccnc3N)c(N3C[C@@H](C)CC3(C)C)n2)nc1OCC(C)C [Compound 1758, N-[(2-amino-3-pyridyl)sulfonyl]-6-(3-isobutoxy-4-methyl-pyrazol-1-yl)-2-[(4S)-2,2,4-trimethylpyrrolidin-1-yl]pyridine-3-carboxamide] | +++ (“+++” means <3 uM)
14 | CC(C)COc1cnn(-c2ccc(C(=O)NS(=O)(=O)c3ccc[nH]c3=O)c(N3C[C@@H](C)CC3(C)C)n2)c1 [Compound 1760, 6-(4-isobutoxypyrazol-1-yl)-N-[(2-oxo-1H-pyridin-3-yl)sulfonyl]-2-[(4S)-2,2,4-trimethylpyrrolidin-1-yl]pyridine-3-carboxamide] | ++ (“++” means between 3 uM and 10 uM)

Next, values leading:

Row | EC30 | SMILES
15 | +++ (“+++” means <3 uM) | CC1CN(c2ncccc2C(=O)NS(=O)(=O)c2cccc(Oc3cccc4ccccc34)n2)C(C)(C)C1 (stereo not shown) [Compound 1751, N—[[6-(1-naphthyloxy)-2-pyridyl]sulfonyl]-2-(2,2,4-trimethylpyrrolidin-1-yl)pyridine-3-carboxamide]
16 | ++ (“++” means between 3 uM and 10 uM) | COc1ccc(OC)c(-c2ccc(C(=O)NS(=O)(=O)c3ccc[nH]c3=O)c(N3C[C@@H](C)CC3(C)C)n2)c1 [Compound 1752, 6-(2,5-dimethoxyphenyl)-N-[(2-oxo-1H-pyridin-3-yl)sulfonyl]-2-[(4S)-2,2,4-trimethylpyrrolidin-1-yl]pyridine-3-carboxamide]
17 | ++ (“++” means between 3 uM and 10 uM) | C#CCOc1cccc(S(=O)(=O)NC(=O)c2cccnc2N2CC(C)CC2(C)C)n1 (stereo not shown) [Compound 1753, N-[(6-prop-2-ynoxy-2-pyridyl)sulfonyl]-2-(2,2,4-trimethylpyrrolidin-1-yl)pyridine-3-carboxamide]
18 | ++ (“++” means between 3 uM and 10 uM) | CC1CN(c2ncccc2C(=O)NS(=O)(=O)c2cccc(N3CCCC(c4ccccc4)C3)n2)C(C)(C)C1 (stereo not shown) [Compound 1755, N—[[6-(3-phenyl-1-piperidyl)-2-pyridyl]sulfonyl]-2-(2,2,4-trimethylpyrrolidin-1-yl)pyridine-3-carboxamide]
19 | +++ (“+++” means <3 uM) | CC1CN(c2ncccc2C(=O)NS(=O)(=O)c2cccc(Nc3ccc(C(C)(C)C)cc3)n2)C(C)(C)C1 (stereo not shown) [Compound 1756, N—[[6-(4-tert-butylanilino)-2-pyridyl]sulfonyl]-2-(2,2,4-trimethylpyrrolidin-1-yl)pyridine-3-carboxamide]
20 | +++ (“+++” means <3 uM) | CC1CN(c2ncccc2C(=O)NS(=O)(=O)c2cccc(Nc3ccc(N(C)C)cc3)n2)C(C)(C)C1 (stereo not shown) [Compound 1757, N—[[6-[4-(dimethylamino)anilino]-2-pyridyl]sulfonyl]-2-(2,2,4-trimethylpyrrolidin-1-yl)pyridine-3-carboxamide]
21 | +++ (“+++” means <3 uM) | Cc1cc2c(cc1-c1cnc(N3CC(C)CC3(C)C)c(C(=O)NS(=O)(=O)c3cccc(N)n3)c1)C(C)(C)CCC2(C)C (stereo not shown) [Compound 1759, N-[(6-amino-2-pyridyl)sulfonyl]-5-(1,1,4,4,7-pentamethyltetralin-6-yl)-2-(2,2,4-trimethylpyrrolidin-1-yl)pyridine-3-carboxamide]
22 | ++ (“++” means between 3 uM and 10 uM) | COc1ccc(Oc2cccc(S(=O)(=O)NC(=O)c3cccnc3N3CC(C)CC3(C)C)n2)cc1OC (stereo not shown) [Compound 1761, N—[[6-(3,4-dimethoxyphenoxy)-2-pyridyl]sulfonyl]-2-(2,2,4-trimethylpyrrolidin-1-yl)pyridine-3-carboxamide]
23 | +++ (“+++” means <3 uM) | C[C@@H]1CN(c2nc(-c3ccc(OC(F)(F)F)cc3)ccc2C(=O)NS(=O)(=O)N2CC[C@H](N)C2)C(C)(C)C1 [Compound 1763, N-[(3S)-3-aminopyrrolidin-1-yl]sulfonyl-6-[4-(trifluoromethoxy)phenyl]-2-[(4S)-2,2,4-trimethylpyrrolidin-1-yl]pyridine-3-carboxamide]
24 | ++ (“++” means between 3 uM and 10 uM) | CC1CN(c2ncccc2C(=O)NS(=O)(=O)c2cccc(OCC3CCCO3)n2)C(C)(C)C1 (stereo not shown) [Compound 1764, N—[[6-(tetrahydrofuran-2-ylmethoxy)-2-pyridyl]sulfonyl]-2-(2,2,4-trimethylpyrrolidin-1-yl)pyridine-3-carboxamide]
25 | +++ (“+++” means <3 uM) | C[C@@H]1CN(c2nc(C(C)(C)C)ccc2C(=O)NS(=O)(=O)c2ccc[nH]c2=O)C(C)(C)C1 [Compound 1765, 6-tert-butyl-N-[(2-oxo-1H-pyridin-3-yl)sulfonyl]-2-[(4S)-2,2,4-trimethylpyrrolidin-1-yl]pyridine-3-carboxamide]
26 | +++ (“+++” means <3 uM) | Cc1ccccc1-c1ccc(C(=O)NS(=O)(=O)c2cccnc2N)c(N2C[C@@H](C)CC2(C)C)n1 [Compound 1766, N-[(2-amino-3-pyridyl)sulfonyl]-6-(o-tolyl)-2-[(4S)-2,2,4-trimethylpyrrolidin-1-yl]pyridine-3-carboxamide]
27 | +++ (“+++” means <3 uM) | CC1CN(c2ncccc2C(=O)NS(=O)(=O)c2cccc(OCC3CCCCC3)n2)C(C)(C)C1 (stereo not shown) [Compound 1767, N—[[6-(cyclohexylmethoxy)-2-pyridyl]sulfonyl]-2-(2,2,4-trimethylpyrrolidin-1-yl)pyridine-3-carboxamide]
28 | ++ (“++” means between 3 uM and 10 uM) | CCOc1cc(C)cc(-c2ccc(C(=O)NS(=O)(=O)c3ccc[nH]c3=O)c(Oc3c(C)cc(C)cc3C)n2)n1 [Compound 1768, 6-(6-ethoxy-4-methyl-2-pyridyl)-N-[(2-oxo-1H-pyridin-3-yl)sulfonyl]-2-(2,4,6-trimethylphenoxy)pyridine-3-carboxamide]
